Columns and labels:
[1] = target: T1, Full length wild-type cereblon CRBN (Homo sapiens, UniProt Q96SW2); assay: Fluorescence polarization (FP) assay indicating cereblon binding; conditions: CRBN 80.0 nM, fluorescent probe 5 nM, FP measured after 12 hours; read-out: rFP IC50
T1 construct: Full length wild-type cereblon CRBN (80.0 nM, 10 μL) was incubated in assay buffer
How it was run: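 Full-length wild-type human CRBN (80.0 nM) preincubated 30 min at room temperature with compound (12-point curve, 300-0.937 or 3000-9.3 nM) in HEPES pH 8.0, NaCl, TCEP, Tween 20. Thalidomide-based Cy5-type probe then added at 5 nM final; FP read after 12 h (ex 590, em 675 nm), normalized to DMSO, IC50 derived.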

GSPT1 = GSPT1 (Homo sapiens, UniProt P15170+Q96SW2); assay: Selectivity determination by Western Blot assay in MM1S cells: GSPT1; type: cell-based; design: MM1S cells were purchased from ATCC (cat. Number CRL-2974); endogenous in cells; host or cells: MM1S (ATCC CRL-2974); conditions: MM1S cells, 0.3, 3 and 30 μM, 6 hours
Procedure: [Worded in the source for another target; this target is reported under the same test.] (§1) CK1alpha/Ikaros/Aiolos/ZFP91 Selectivity determination by Western Blot Assay
(§2) MM1S cells were purchased from ATCC (cat. Number CRL-2974), sub-cultured in 90% RPMI 1640 with 10% FBS, supplemented with 1× P/S and incubated at 37° C., 5% CO2. Compounds were stored as 10 mM DMSO stock. For the assay, MM1S cells (3 million cells/well) were plated in 6-well plates and incubated over night. Cells were treated with respective compounds using a serial dilution: 0.3 μM, 3 μM and 30 μM as well as a vehicle only (DMSO) control for 6 hours. Media with suspension cells was subsequently transferred to 15 mL conical tubes, wells rinsed twice with ice-cold PBS and merged with cell suspension in respective 15 mL conical tube. Cells were spinned down, supernatant aspirated, pellets resuspended in ice-cold PBS and transferred to microtubes. Cells were spinned down, supernatant aspirated and pellets resuspended in 120 μL RIPA lysis buffer supplemented with protease and phosphatase inhibitors. Cell lysates were incubated on ice for 20 minutes followed by centrifugation at >20,000×g for 5 mM. Supernatants were transferred to fresh microtubes and stored at −80° C. Total protein concentration was determined using a BCA assay with a BSA standard curve and concentration of all samples was adjusted to 1 mg/mL. 25 μL 4× LDS sample buffer supplemented with 100 mM DTT was added to 75 μL sample. Samples were centrifuged (8,000×g, 1 min) and incubated at 95° C. for […] followed by another centrifugation step (8,000×g, 1 mM). 20 μL of each sample was loaded on a 4-12% gel alongside a protein molecular weight marker. Gels were run in the presence of MOPS buffer at 80 Volts for […], followed by 120 Volts for 1.5 h and proteins subsequently transferred onto nitrocellulose membranes at 20 Volts for 7 mM using an iBlot2 Gel Transfer Device. Membranes were then cut horizontally into two pieces, covering 80-50 kDa and 50-25 kDa. Blocking the membranes was performed by gently shaking in 5% (w/v) skim milk in TSB-T for 1 hr at room temperature. All primary antibodies were used at a 1/1000 in 5% (w/v) BSA dissolved in TBST and incubated with membranes over night at 4° C. After three washes with 1× TBST for 5 mM, HRP-coupled secondary antibodies diluted in 5% (w/v) BSA/TBST (Goat Anti-Rb IgG, dil. 1/10,000; Goat Anti-Mouse IgG, dil. 1/5000) were added for 1 hr at room temperature. After three washes with 1× TBST (5 minutes each), membranes were incubated with ECL reagent for 1 mM at room temperature. Chemiluminescence signals were then detected using a LAS-4000 system with default settings and signals quantified using Image Studio Lite software (version 5.2). Membrane parts previously incubated with antibody against CK1alpha were stripped off antibodies by incubating with stripping buffer for 30 minutes followed by three washed with TBST (5 mM each), blocking with 5% (w/v) skim milk for 1 hr, and incubation with primary antibody against GAPDH overnight at 4° C. Subsequent washes, incubation with secondary antibody and signal acquisition were performed as described above.
(§3) Table 5 assigns each compound a code indicating the ability for the degradation of IKZF1, IKZF3, CK1alpha and ZFP91: A, B, C, D, E or F. According to the code, A represents a no degradation observed at 30 μM, B represents trace degradation at 30 μM (below 20%), C represents weak degradation at 30 μM (below 50%), D represents degradation at 30 μM (>90%), E represents degradation at 3 μM (>90%) and F represents degradation at 0.3 μM (>90%).

ZFP91 = target: T2, ZFP91 (Homo sapiens, UniProt Q96JP5); assay: Selectivity determination by Western Blot assay in MM1S cells: ZFP91; type: cell-based; design: key: A represents a no degradation observed at 30 μM; B represents trace degradation at 30 μM (below 20%); C represents weak degradation at 30 μM (below 50%); D represents degradation at 30 μM (>90%); E represents degradation at 3 μM (>90%); F represents degradation at 0.3 μM (>90%); conditions: MM1S cells, 0.3, 3 and 30 μM, 6 hours
T2 construct: MM1S cells were purchased from ATCC (cat. Number CRL-2974); endogenous in cells; host or cells: MM1S (ATCC CRL-2974)
Procedure: as §1, §2, §3

IKZF1 = target: T3, IKZF1 (Homo sapiens, UniProt Q13422); assay: Selectivity determination by Western Blot assay in MM1S cells: IKZF1; type: cell-based; design: key: A represents a no degradation observed at 30 μM; B represents trace degradation at 30 μM (below 20%); C represents weak degradation at 30 μM (below 50%); D represents degradation at 30 μM (>90%); E represents degradation at 3 μM (>90%); F represents degradation at 0.3 μM (>90%); conditions: MM1S cells, 0.3, 3 and 30 μM, 6 hours
T3 construct: MM1S cells were purchased from ATCC (cat. Number CRL-2974); endogenous in cells; host or cells: MM1S (ATCC CRL-2974)
Procedure: as §1, §2, §3

T2 sequence (Q96SW2 whole entry partner): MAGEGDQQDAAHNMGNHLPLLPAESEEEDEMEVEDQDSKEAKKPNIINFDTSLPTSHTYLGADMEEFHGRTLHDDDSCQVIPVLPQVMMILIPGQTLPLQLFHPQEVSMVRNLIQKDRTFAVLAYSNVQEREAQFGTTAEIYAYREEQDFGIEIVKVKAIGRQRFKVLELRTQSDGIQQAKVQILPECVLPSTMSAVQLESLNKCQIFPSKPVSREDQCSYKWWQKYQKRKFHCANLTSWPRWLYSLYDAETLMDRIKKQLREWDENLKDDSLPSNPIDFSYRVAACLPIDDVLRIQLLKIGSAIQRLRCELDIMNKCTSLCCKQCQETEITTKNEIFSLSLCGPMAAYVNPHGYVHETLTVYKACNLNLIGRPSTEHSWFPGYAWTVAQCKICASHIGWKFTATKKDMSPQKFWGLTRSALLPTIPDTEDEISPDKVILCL
T2 sequence (Q16531 2-1140 partner limits assumed): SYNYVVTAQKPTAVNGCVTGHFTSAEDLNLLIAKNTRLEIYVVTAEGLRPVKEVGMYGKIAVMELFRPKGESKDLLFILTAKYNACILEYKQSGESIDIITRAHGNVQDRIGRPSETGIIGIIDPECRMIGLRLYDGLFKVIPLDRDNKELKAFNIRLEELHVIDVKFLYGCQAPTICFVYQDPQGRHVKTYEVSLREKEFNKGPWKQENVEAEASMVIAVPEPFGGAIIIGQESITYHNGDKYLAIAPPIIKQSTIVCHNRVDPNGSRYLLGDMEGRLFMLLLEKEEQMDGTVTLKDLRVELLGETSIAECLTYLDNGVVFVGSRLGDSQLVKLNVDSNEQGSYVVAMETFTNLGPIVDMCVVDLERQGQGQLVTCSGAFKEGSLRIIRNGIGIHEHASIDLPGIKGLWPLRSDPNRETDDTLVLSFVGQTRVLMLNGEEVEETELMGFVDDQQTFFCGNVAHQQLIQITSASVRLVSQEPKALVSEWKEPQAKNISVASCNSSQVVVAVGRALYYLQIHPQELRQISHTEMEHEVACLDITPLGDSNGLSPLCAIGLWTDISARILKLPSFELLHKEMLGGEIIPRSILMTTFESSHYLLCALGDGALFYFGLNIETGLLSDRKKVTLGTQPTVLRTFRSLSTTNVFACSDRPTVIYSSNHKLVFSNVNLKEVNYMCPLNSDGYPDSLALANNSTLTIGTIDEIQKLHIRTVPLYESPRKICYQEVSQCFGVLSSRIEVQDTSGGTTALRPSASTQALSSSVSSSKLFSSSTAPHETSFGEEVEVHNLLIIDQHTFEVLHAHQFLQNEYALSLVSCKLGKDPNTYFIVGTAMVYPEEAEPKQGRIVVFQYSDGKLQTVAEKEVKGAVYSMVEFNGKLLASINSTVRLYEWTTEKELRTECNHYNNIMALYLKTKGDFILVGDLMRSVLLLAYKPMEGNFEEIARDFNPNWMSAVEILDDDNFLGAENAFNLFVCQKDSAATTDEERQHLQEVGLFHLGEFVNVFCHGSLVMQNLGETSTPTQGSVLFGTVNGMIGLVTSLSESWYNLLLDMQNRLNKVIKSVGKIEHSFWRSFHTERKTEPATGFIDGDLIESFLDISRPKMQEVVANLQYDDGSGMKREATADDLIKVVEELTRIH
T2 sequence (Q96JP5 2-570 limits assumed): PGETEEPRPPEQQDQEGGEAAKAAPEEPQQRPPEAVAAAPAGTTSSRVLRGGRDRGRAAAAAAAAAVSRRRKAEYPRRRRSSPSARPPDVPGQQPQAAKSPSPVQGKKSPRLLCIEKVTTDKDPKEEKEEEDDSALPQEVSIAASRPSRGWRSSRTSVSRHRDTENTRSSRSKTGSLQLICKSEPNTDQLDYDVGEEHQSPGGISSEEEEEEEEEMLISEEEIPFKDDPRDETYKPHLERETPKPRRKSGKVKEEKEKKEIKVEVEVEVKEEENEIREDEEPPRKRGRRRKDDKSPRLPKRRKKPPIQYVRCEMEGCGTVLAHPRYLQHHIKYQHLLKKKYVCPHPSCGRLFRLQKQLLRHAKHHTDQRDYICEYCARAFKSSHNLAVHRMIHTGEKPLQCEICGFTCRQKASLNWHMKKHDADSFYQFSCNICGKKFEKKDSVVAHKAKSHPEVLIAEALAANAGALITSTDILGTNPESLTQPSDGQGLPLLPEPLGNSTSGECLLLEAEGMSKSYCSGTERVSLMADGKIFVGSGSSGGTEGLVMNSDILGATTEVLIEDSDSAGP
T3 sequence (Q96SW2 whole entry partner): as the sequence (Q96SW2 whole entry partner) above
T3 sequence (Q16531 2-1140 partner limits assumed): as the sequence (Q16531 2-1140 partner limits assumed) above
T3 sequence (Q13422 whole entry): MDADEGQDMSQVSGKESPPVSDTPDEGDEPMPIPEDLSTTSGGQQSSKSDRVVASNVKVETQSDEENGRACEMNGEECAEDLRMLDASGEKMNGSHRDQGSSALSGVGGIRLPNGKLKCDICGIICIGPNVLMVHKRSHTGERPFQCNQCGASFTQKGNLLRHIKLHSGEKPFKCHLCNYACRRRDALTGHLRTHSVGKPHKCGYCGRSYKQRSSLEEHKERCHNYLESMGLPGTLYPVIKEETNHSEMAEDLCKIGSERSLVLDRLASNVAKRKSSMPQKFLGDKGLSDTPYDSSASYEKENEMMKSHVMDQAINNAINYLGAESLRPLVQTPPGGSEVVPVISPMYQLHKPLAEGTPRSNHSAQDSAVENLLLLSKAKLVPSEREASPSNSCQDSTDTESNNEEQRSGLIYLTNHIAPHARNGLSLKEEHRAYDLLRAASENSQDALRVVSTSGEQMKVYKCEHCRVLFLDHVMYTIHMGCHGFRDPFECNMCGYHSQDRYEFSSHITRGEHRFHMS
T1 sequence (Q96SW2 whole entry): as the sequence (Q96SW2 whole entry partner) above
Chain of GSPT1 (P15170 whole entry): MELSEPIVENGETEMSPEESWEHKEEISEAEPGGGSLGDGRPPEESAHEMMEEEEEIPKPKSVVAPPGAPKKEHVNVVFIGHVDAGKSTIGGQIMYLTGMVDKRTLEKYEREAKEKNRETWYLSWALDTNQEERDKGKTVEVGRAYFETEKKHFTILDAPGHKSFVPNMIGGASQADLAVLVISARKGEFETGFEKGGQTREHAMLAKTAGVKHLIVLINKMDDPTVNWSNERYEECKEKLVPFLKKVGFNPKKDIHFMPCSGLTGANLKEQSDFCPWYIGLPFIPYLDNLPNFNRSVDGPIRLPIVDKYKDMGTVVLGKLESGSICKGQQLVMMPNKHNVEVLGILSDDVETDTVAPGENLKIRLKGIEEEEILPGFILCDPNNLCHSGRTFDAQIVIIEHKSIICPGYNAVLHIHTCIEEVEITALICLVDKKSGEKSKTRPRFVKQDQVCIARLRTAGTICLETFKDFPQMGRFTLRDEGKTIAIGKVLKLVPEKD
Chain of GSPT1 (Q96SW2 whole entry): as the sequence (Q96SW2 whole entry partner) above
Chain of GSPT1 (Q16531 2-1140 partner limits assumed): as the sequence (Q16531 2-1140 partner limits assumed) above

For `Cc1ccc(NC(=O)NCc2ccc3c(c2)C(=O)N(C2CCC(=O)NC2=O)C3)cc1Cl` (stereo not shown) [Compound 8], the IC50 [1] was 468 nM, the GSPT1 degradation code (GSPT1) was “F (F represents degradation at 0.3 μM (>90%))” and the ZFP91 degradation code (ZFP91) was “B (B represents trace degradation at 30 μM (below 20%))”. The IKZF1 degradation code (IKZF1) was “A”.
`Cc1c(Cl)cc(NC(=O)NCc2ccc3c(c2)C(=O)N(C2CCC(=O)NC2=O)C3)cc1CN(C)C` (stereo not shown) [Compound 75] was tested, and the IC50 [1] was 284 nM, the GSPT1 degradation code (GSPT1) was “E (E represents degradation at 3 μM (>90%))” and the ZFP91 degradation code (ZFP91) was “A”. For the same compound, the IKZF1 degradation code (IKZF1) was “A”.
For `Cc1c(Cl)cc(NC(=O)NCc2ccc3c(c2)C(=O)N(C2CCC(=O)NC2=O)C3)cc1CN1CCOCC1` (stereo not shown) [Compound 82], the IC50 [1] was 372 nM, the GSPT1 degradation code (GSPT1) was “F (F represents degradation at 0.3 μM (>90%))” and the ZFP91 degradation code (ZFP91) was “A”. For the same compound, the IKZF1 degradation code (IKZF1) was “A”.
In the case of `Cc1cc(C)c(NC(=O)NCc2ccc3c(c2)C(=O)N(C2CCC(=O)NC2=O)C3)cc1Cl` (stereo not shown) [Compound 85], the IC50 [1] is reported as 214 nM, the GSPT1 degradation code (GSPT1) is reported as “E (E represents degradation at 3 μM (>90%))” and the ZFP91 degradation code (ZFP91) is reported as “A”. The IKZF1 degradation code (IKZF1) was “A”.
In the case of `Cc1ccc(NC(=O)NCc2ccc3c(c2)C(=O)N(C2CCC(=O)NC2=O)C3)c(Cl)c1Cl` (stereo not shown) [Compound 87], the IC50 [1] is reported as 278 nM, the GSPT1 degradation code (GSPT1) is reported as “E (E represents degradation at 3 μM (>90%))” and the ZFP91 degradation code (ZFP91) is reported as “A”. For the same compound, the IKZF1 degradation code (IKZF1) was “A”.
For `O=C1CCC(N2Cc3ccc(CNC(=O)Nc4cccc(CN5CCOCC5)c4)cc3C2=O)C(=O)N1` (stereo not shown) [Compound 105], the IC50 [1] was 295 nM, the GSPT1 degradation code (GSPT1) was “E (E represents degradation at 3 μM (>90%))” and the ZFP91 degradation code (ZFP91) was “B (B represents trace degradation at 30 μM (below 20%))”. The IKZF1 degradation code (IKZF1) was “B (B represents trace degradation at 30 μM (below 20%))”.
For `Cc1c(Cl)cc(NC(=O)NCc2ccc3c(c2)C(=O)N(C2CCC(=O)NC2=O)C3)cc1CC1COCOC1` (stereo not shown) [Compound 132], the IC50 [1] was 381 nM, the GSPT1 degradation code (GSPT1) was “F (F represents degradation at 0.3 μM (>90%))” and the ZFP91 degradation code (ZFP91) was “C (C represents weak degradation at 30 μM (below 50%))”. The IKZF1 degradation code (IKZF1) was “A”.

Reference: US20220242846A1, “ISOINDOLINONE COMPOUNDS” (Monte Rosa Therapeutics AG, priority 2019, published 2022)
